Reference: PMC4660506 (Pharmacognosy Research, 2015)
pEC50: −log10 of the molar value.

Key:
alpha-amylase = target: T1, alpha-amylase (Sus scrofa, UniProt P00690); assay: Alpha-amylase inhibitory activity; type: biochemical; conditions: qualitative statement
T1 sequence (P00690 16-511): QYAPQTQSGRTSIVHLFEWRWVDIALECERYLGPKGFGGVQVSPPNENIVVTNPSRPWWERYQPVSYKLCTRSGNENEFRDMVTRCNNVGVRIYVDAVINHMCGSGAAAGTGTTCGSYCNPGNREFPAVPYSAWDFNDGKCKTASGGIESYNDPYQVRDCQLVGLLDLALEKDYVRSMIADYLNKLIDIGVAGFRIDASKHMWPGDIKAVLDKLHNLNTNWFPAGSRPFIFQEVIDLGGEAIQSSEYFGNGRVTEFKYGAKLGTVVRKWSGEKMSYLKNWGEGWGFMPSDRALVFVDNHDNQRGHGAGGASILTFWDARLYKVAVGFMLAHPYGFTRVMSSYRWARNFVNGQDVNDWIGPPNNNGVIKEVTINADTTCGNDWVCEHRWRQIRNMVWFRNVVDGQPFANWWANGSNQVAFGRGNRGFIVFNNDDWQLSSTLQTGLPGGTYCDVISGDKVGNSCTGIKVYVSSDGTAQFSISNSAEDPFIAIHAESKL

xanthine oxidase (XO) = xanthine oxidase (XO) (Bos taurus, UniProt P80457); assay: Xanthine oxidase inhibitory activity; type: biochemical
xanthine oxidase (XO), sequence (P80457 2-1332 limits assumed): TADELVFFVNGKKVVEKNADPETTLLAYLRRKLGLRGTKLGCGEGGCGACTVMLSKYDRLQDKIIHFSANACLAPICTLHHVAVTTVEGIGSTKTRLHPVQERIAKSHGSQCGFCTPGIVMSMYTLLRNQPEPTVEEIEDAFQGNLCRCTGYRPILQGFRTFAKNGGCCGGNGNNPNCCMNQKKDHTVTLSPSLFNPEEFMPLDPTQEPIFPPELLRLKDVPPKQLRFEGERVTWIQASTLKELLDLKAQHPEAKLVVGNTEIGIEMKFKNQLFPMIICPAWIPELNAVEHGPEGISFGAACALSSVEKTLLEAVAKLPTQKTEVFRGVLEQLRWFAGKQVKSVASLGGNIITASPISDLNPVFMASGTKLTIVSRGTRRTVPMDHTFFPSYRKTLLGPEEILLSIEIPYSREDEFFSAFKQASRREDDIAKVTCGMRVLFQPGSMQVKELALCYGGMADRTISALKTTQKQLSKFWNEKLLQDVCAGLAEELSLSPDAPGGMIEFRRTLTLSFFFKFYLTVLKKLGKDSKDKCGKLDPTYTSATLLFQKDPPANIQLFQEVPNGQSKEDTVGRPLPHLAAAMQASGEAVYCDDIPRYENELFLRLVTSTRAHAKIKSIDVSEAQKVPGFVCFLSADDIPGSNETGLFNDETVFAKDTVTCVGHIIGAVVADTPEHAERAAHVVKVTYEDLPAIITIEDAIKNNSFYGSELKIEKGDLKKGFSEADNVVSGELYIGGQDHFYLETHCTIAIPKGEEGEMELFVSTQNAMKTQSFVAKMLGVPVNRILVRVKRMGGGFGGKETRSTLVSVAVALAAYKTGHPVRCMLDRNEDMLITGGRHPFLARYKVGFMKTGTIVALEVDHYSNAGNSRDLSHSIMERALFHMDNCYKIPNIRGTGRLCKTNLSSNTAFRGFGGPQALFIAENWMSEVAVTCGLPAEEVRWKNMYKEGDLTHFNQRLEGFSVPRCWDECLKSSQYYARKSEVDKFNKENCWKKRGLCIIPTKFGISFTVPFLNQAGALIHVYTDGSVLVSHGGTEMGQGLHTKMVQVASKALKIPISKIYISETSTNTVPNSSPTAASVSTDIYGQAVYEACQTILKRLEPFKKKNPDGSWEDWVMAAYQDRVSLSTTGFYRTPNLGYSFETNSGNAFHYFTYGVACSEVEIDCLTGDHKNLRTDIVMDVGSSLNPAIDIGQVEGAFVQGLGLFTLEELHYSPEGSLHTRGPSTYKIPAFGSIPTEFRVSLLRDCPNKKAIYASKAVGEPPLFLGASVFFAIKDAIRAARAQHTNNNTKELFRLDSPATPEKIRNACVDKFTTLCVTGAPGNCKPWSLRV

Molecule | XO inhibitory activity (in words) (xanthine oxidase (XO); qualitative statement) | Alpha-amylase inhibitory activity (in words) (alpha-amylase) | other results
CC[C@H](CC[C@@H](C)[C@H]1CC[C@H]2[C@@H]3CC=C4C[C@@H](O)CC[C@]4(C)[C@H]3CC[C@]12C)C(C)C [F7, β-sitosterol] |  | more active against alpha-amylase as compared to the parent fraction | 
O=c1c(O)c(-c2ccc(O)c(O)c2)oc2cc(O)cc(O)c12 [F10, quercetin] |  |  | XO inhibitory activity (in words) (xanthine oxidase (XO); qualitative statement in text, listed as Quercetin): highest inhibitory activity; XO inhibitory activity (in words) (xanthine oxidase (XO); qualitative statement in text, listed as quercetin): active
C=C(C)[C@@H]1CC[C@]2(C)CC[C@]3(C)[C@H](CC[C@@H]4[C@@]5(C)CC[C@H](O)C(C)(C)[C@@H]5CC[C@]43C)[C@@H]12 [F11, lupeol] |  | more active against alpha-amylase as compared to the parent fraction | 

The next lines start with results.

XO inhibitory activity (in words) (xanthine oxidase (XO); qualitative statement) | Molecule | Alpha-amylase inhibitory activity (in words) (alpha-amylase) | other results
active | 2-hydroxyacetophenone [F2] |  | 
active | C[C@@H]1O[C@@H](OC[C@H]2O[C@@H](Oc3c(-c4ccc(O)c(O)c4)oc4cc(O)cc(O)c4c3=O)[C@H](O)[C@@H](O)[C@@H]2O)[C@H](O)[C@H](O)[C@H]1O [F9, rutin] |  | pEC50 (xanthine oxidase (XO)): 4.76
